What was measured:
Experiment in all cases: selective drug sensitivity score (sDSS, relative to normal bone marrow) (sDSS (score)); higher = more potent and effective on the cell line relative to normal bone marrow cells
Details in all cases: 72 h
TANOUE = test system: TANOUE
KASUMI-9 = test system: KASUMI-9
MHH-CALL-2 = test system: MHH-CALL-2
ALL-SIL = test system: ALL-SIL
RCH-ACV = test system: RCH-ACV
COG-LL-319h = test system: COG-LL-319h
JURKAT = test system: JURKAT
MOLT-16 = test system: MOLT-16
697 = test system: 697
NALM-16 = test system: NALM-16
COG-LL-402h = test system: COG-LL-402h
COG-LL-355h = test system: COG-LL-355h
COG-LL-394h = test system: COG-LL-394h
CCRF-HSB2 = test system: CCRF-HSB2
PF-382 = test system: PF-382
COG-LL-317 = test system: COG-LL-317
SEM cells = test system: SEM cells
KASUMI-2 = test system: KASUMI-2
MHH-CALL-3 = test system: MHH-CALL-3
PEER = test system: PEER
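Also: ALL cell lines in 384-well plates, five doses spanning 10,000-fold, each plate scaled between vehicle and 100 µmol/L benzalkonium chloride controls, sDSS an adapted area-under-curve metric.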

Row | Compound | selective drug sensitivity score (TANOUE) | selective drug sensitivity score (KASUMI-9) | selective drug sensitivity score (MHH-CALL-2) | selective drug sensitivity score (ALL-SIL) | selective drug sensitivity score (RCH-ACV) | selective drug sensitivity score (COG-LL-319h) | selective drug sensitivity score (JURKAT) | selective drug sensitivity score (MOLT-16) | selective drug sensitivity score 697 | selective drug sensitivity score (NALM-16) | selective drug sensitivity score (COG-LL-402h) | selective drug sensitivity score (COG-LL-355h) | selective drug sensitivity score (COG-LL-394h) | selective drug sensitivity score (CCRF-HSB2) | selective drug sensitivity score (PF-382) | selective drug sensitivity score (COG-LL-317) | selective drug sensitivity score (SEM cells) | selective drug sensitivity score (KASUMI-2) | selective drug sensitivity score (MHH-CALL-3) | selective drug sensitivity score (PEER)
1 | CCS(=O)(=O)c1cccc(-c2cc(C(=O)NC3CCN(C)CC3)c(C)c3[nH]c4ncc(C)cc4c23)c1 [TAK-901] (top concentration 1000 nM) | -4.74 | 10.8 | 7.26 | 15.3 | 10.7 | 10.5 | 1.86 | 12.6 | 12.8 | 0.16 | 8.96 | 6.16 | 3.66 | 13.6 | 7.16 | 11.7 | 9.36 | 7.56 | 6.66 | 12.4
2 | Cc1cc(Nc2cc(N3CCN(C)CC3)nc(/C=C/c3ccccc3)n2)n[nH]1 [ENMD-2076] (top concentration 10000 nM) | -9.16 | 9.24 | 5.44 | 8.94 | 8.84 | 5.54 | 3.64 | 7.04 | 9.54 | -0.06 | 4.24 | 4.04 | 1.44 | 9.74 | 1.34 | 5.14 | 15 | -4.76 | -2.76 | 7.14
3 | Cc1ccc(C(=O)Nc2ccc(CN3CCN(C)CC3)c(C(F)(F)F)c2)cc1C#Cc1cnc2cccnn12 [Ponatinib] (top concentration 1000 nM) | -3.78 | 5.42 | 5.92 | 41.7 | 14.8 | 10.3 | 1.42 | 6.62 | 6.62 | -0.08 | 10.2 | 5.52 | 1.12 | 34.4 | 6.62 | -1.98 | 19.4 | -1.78 | 10.7 | 18.6
4 | CS(=O)(=O)c1ccc(-c2cnc(N)c(C(=O)Nc3ccccc3)n2)cc1 [VE-821] (top concentration 10000 nM) | 0.64 | 0.84 | 7.84 | 4.94 | 7.94 | 11.2 | 1.64 | 7.94 | -0.66 | -0.66 | 0.34 | 5.64 | -0.66 | 4.44 | -0.56 | 12.7 | 2.44 | -0.66 | -0.06 | 0.54
5 | Cc1cccc(-c2[nH]c(CNc3ccccc3F)nc2-c2ccc3ncnn3c2)n1 [Vactosertib (TEW-7197)] (top concentration 2500 nM) | -0.5 | 1.4 | -0.3 | -0.5 | -0.5 | 7.2 | 0 | 10.7 | -0.5 | -0.4 | 1.1 | 1.2 | -0.5 | 5.1 | -0.5 | -0.3 | 4.5 | -0.5 | -0.5 | -0.5
6 | Cc1cnc(Nc2ccc(OCCN3CCCC3)cc2)nc1Nc1cccc(S(=O)(=O)NC(C)(C)C)c1 [Fedratinib] (top concentration 10000 nM) | -7.06 | -0.86 | -0.26 | 0.84 | -1.06 | 4.64 | -2.06 | -1.06 | -0.76 | -2.16 | 1.24 | 3.84 | 0.14 | 0.54 | -3.06 | -3.36 | 2.74 | -6.16 | 2.54 | -0.16
7 | COc1cccc2c1c(O)c(C(=O)N(C)c1ccc(C(F)(F)F)cc1)c(=O)n2C [Tasquinimod] (top concentration 10000 nM) | 1.58 | -0.42 | 0.88 | 3.48 | -0.42 | 16.6 | -0.42 | -0.42 | -0.42 | -0.42 | -0.42 | -0.42 | -0.42 | 2.38 | -0.32 | 0.28 | -0.42 | -0.42 | -0.42 | -0.32
8 | Cc1nn(C)c(COc2ccc(N3CCN(S(=O)(=O)N(C)C)CC3)cc2)c1-c1cccc2c(CCCOc3cccc4ccccc34)c(C(=O)O)n(CCN3CCOCC3)c12 (top concentration 50000 nM) | 2.56 | 5.66 | 7.86 | 7.26 | 4.66 | 5.26 | 5.86 | 12.6 | 4.36 | 4.36 | 4.26 | 15.3 | 4.56 | 5.36 | 3.16 | 2.16 | 4.96 | -0.74 | 2.56 | 10.2
9 | Cc1cc([C@@H](C)Nc2ccccc2C(=O)O)c2nc(N3CCOCC3)cc(=O)n2c1 [AZD-6482] (top concentration 2500 nM) | 0.02 | 5.82 | 2.82 | -0.28 | 17.6 | 13.6 | -0.28 | -0.28 | 3.12 | 0.42 | 6.52 | 6.92 | -0.28 | 2.12 | 2.62 | -0.18 | 1.92 | 10.2 | 0.42 | -0.28
